Test results from patent publication US20030026781A1, “Compositions and methods for regulating endogenous inhibitor of ATP synthase, including treatment for diabetes” (MitoKor, priority 1999, published 2003).
Values joined by “and” are separate entries in the source; they are usually repeats but may differ in a detail not shown here. Identical values can stand only once. Blank lines part the entries; values can stand above or below the compound they belong to. Ends that are not written are not given here.

Legend:
purified F1-ATPase = target: T1, purified F1-ATPase (Bos taurus, UniProt P00829+P19483); assay: ATP hydrolysis by purified F1-ATPase; type: biochemical; details: bovine cardiac F1-ATPase; read-out: IC50 for inhibition of ATP hydrolysis by purified F1-ATPase
T1 construct: F1 ATPase subcomplexes were isolated from bovine cardiac samples; from tissue; host or cells: bovine heart (alkaline submitochondrial particles, chloroform extraction, method of Walker et al. 1995)
Protocol: (§1) F0-F1 ATPase complexes and F1 ATPase subcomplexes were isolated from bovine cardiac samples essentially according to the method of Walker et al. (Methods in Enzymology 260:163-190, 1995), with the exception that, instead of preparing SMPs (submitochondrial particles) at neutral pH, ASMPs (alkaline submitochondrial particles; see Rouslin and Broge, Anal. Biochem. 222:68-75, 1994) were prepared from bovine heart by sonication in a basic solution. The ASMPs were extracted with chloroform and used to prepare F0-F1 ATPase and F1 ATPase according to the method of Walker et al. (Methods in Enzymology 260:163-190, 1995).
(§2) One assay for ATPase activity involves measuring ATP hydrolysis according to methods known in the art (Walker et al., Methods in Enzymology 260:163-190, 1995; Rouslin and Broge, Anal. Biochem. 222:68-75, 1994). Such assays can be performed using purified F0-F1 ATPase complexes or F1 ATPase subcomplexes, or using alkaline submitochondrial particles (ASMPs).
In an initial experiment to validate the reagents and assay system, Aurovertin-B was used as a positive control. This antibiotic binds to and inhibits the activity of bacterial and mitochondrial ATPases (van Raaij et al., Proc. Natl. Acad. Sci. US.A. 93:14 6913-14 6917, 1996). The purified F1-ATPase described in the preceding Example was treated with varying concentrations of Aurovertin-B, and ATP hydrolyis was measured.

INS-1 cells [1] = assay: Mitochondrial DNA content of INS-1 cells by slot blot with COX-I probe; details: for effect on mtDNA content: INS-1 cells incubated for seven days with nucleoside analog
INS-1 cells [2] = assay: Glucose-responsive insulin secretion by INS-1 cells depleted of mtDNA; type: cell-based, rat; details: cells treated with ddC (10 μM) for over 20 days; any glucose level tested
Protocol: INS-1 cells, or ρ^0 INS-1 cells generated using ddC as described above, were seeded into 12-well plates containing RPMI media supplemented as described at 0.5×10^6 cells/well and cultured at 37° C., 5% CO2 for 2 days. Cells (0.7×10^6 cells/well were rinsed with glucose-free KRH buffer (134 mM NaCl, 4.7 mM KCl, 1.2 mM KH2PO4, 1.2 mM MgSO4, 1.0 mM CaCl2, 10 mM HEPES, 10 mM NaHCO3, 0.5% BSA), then incubated in the same buffer for 1 hr at 37° C. in a humidified 5% CO2/95% air atmosphere. Fresh KRH buffer containing 0.5 mM isobutylmethyl xanthine and the following secretagogues was added: 5 mM glucose, 10 mM glucose, 20 mM glucose, 5 mM KCl or 20 mM KCl. After an additional 1 hr at 37° C., 5% CO2 the culture supernatants were collected. Insulin concentrations in the supernatants were measured and normalized to cell number using an insulin-specific radioimmunoassay kit (ICN Biochemicals, Irvine, Calif.) according to the manufacturer's instructions.

F0-F1-ATPase = target: T2, F0-F1-ATPase (Bos taurus, UniProt P00829+P19483); assay: ATP hydrolysis by purified F0-F1-ATPase; type: biochemical; details: bovine cardiac F0-F1-ATPase
T2 construct: F0-F1 ATPase complexes and F1 ATPase subcomplexes were isolated from bovine cardiac samples; from tissue; host or cells: bovine heart (from alkaline submitochondrial particles, method of Walker et al. 1995)
Protocol: as §1, §2
In like fashion, the two IF1 polypeptide derivatives were tested for their ability to inhibit the purified F1-ATPase and F0-F1-ATPase. The results (FIG. 5) indicate that both synthetic polypeptides inhibited the F1 ATPase. […]

Compound: CC[C@H]1O[C@]2(C)[C@H](OC(C)=O)[C@@]1(C)O[C@@H](/C=C/C=C/C=C/c1oc(=O)cc(OC)c1C)[C@@H]2O [Aurovertin-B]
IC50 (purified F1-ATPase): 850 nM

Compound: Cc1cn([C@H]2C=C[C@@H](CO)O2)c(=O)[nH]c1=O [d4T]
effect on mtDNA content (INS-1 cells [1]): decreased mtDNA content in a dose-dependent fashion

Compound: Nc1ccn([C@H]2CC[C@@H](CO)O2)c(=O)n1 [ddC, 2′3′-dideoxycytidine]
effect on mtDNA content (INS-1 cells [1]): decreased mtDNA content in a dose-dependent fashion
mtDNA detection (INS-1 cells [1]; INS-1 cells incubated with 25 ∥M ddC, after 21 days): undetectable
IC50 (INS-1 cells [1]; read-out: IC50 for decrease of mtDNA content, INS-1 cells, seven days): ~50000 nM
glucose stimulated insulin secretion (INS-1 cells [2]): not observed

Compound: O=c1[nH]cnc2c1ncn2[C@H]1CC[C@@H](CO)O1 [ddI, 2′3′-dideoxyinosine]
effect on mtDNA content (INS-1 cells [1]): decreased mtDNA content in a dose-dependent fashion

IC50 for inhibition of purified F0-F1-ATPase (F0-F1-ATPase): no effect
Compound: FGKREKAEEDRYFREKTREQLAALK [IF1(22-46)]

IC50 (F0-F1-ATPase; read-out: IC50 for inhibition of purified F0-F1-ATPase): ~180 nM and 180 nM
Compound: LAALKKHHEDEIDHHSK [IF1(42-58)]
